Laboratory results from patent publication US20230111853A1, “COMPOUNDS MODULATING PROTEIN RECRUITMENT AND/OR DEGRADATION” (Orionis Biosciences, Inc., priority 2019, published 2023).

Tested on: IKZF1, ASS1 and SALL4 recruitment to CRBN
Assay: Recruitment assessment: recruitment of any tested substrate from among IKZF1, ASS1 and SALL4
Assay type: cell-based
Details: any tested substrate at any tested compound concentration
Protocol: In this experimental set-up, cells were transfected with a construct encoding a CRBN-fusion protein and another one encoding a substrate-fusion protein. Test compound activity was assessed with increasing concentrations of test compounds (dose-response studies) to monitor the ability to promote CRBN-ligand-induced protein interaction.
Full size proteins were fused for each of the target proteins tested, except in the case of IKZF1 where isoform 7 was used. For the study, the following were used: IKZF1 recruitment: pSEL-CRBN+pMG1-IKZF1(isoform 7); ASS1 recruitment: pSEL-CRBN+pMG1-ASS1. SALL4 recruitment: pSEL-SALL4+pMG1-CRBN. […] Luciferase activity was measured 24 hours after test compound treatment using the Luciferase Assay System kit (PROMEGA, Madison, Wis.) with an Ensight plate reader (PERKIN ELMER LIFE SCIENCES, Waltham, Mass.). Data points depicted fold induction of the average luciferase activity of triplicate samples from EPO+test compound treated cells versus EPO only treated cells. Error bars represent standard deviations. Curves were fit using 4-parameter nonlinear regression in […] PRISM software.

| Compound | Recruitment Assessment |
| --- | --- |
| O=C1CCC(N2Cc3ccccc3C2=O)C(=O)N1 (single isomer, unassigned) [5′-OH-THL, 3-(1-oxoisoindolin-2-yl)piperidine-2,6-dione, reference compound] | FALSE |
| O=C1N=c2ccc(NC(=O)NCc3ccccc3)cc2=N1 [1-benzyl-3-(2-oxobenzimidazol-5-yl)urea] | FALSE |
| O=C(O)CNc1cccc2c1CN(C1CCC(=O)NC1=O)C2=O (stereo not drawn) [2-[[2-(2,6-dioxo-3-piperidyl)-1-oxo-isoindolin-4-yl]amino]acetic acid] | FALSE |
| O=C1CCC(N2C(=O)c3ccccc3C2OCc2ccccc2)C(=O)N1 (stereo not drawn) [3-(1-benzyloxy-3-oxo-isoindolin-2-yl)piperidine-2,6-dione] | FALSE |
| O=C1CCC(N2Cc3ccccc3C2=O)C(=O)N1 (stereo not drawn) [3-(1-oxoisoindolin-2-yl)piperidine-2,6-dione] | TRUE |
| Nc1cccc2c1C(=O)N(C1CCC(=O)NC1=O)C2 (stereo not drawn) [3-(7-amino-1-oxo-isoindolin-2-yl)piperidine-2,6-dione] | TRUE |
| O=C1CCC(N2C(=O)c3ccccc3C2OC2CCCCC2)C(=O)N1 (stereo not drawn) [3-[1-(cyclohexoxy)-3-oxo-isoindolin-2-yl]piperidine-2,6-dione] | FALSE |
| O=C1CCC(N2C(=O)c3ccccc3C2Nc2ccccc2)C(=O)N1 (stereo not drawn) [C10537, 3-(1-anilino-3-oxo-isoindolin-2-yl)piperidine-2,6-dione] | FALSE |
| COc1ccc(C2c3ccccc3C(=O)N2C2CCC(=O)NC2=O)cc1 (stereo not drawn) [C11892] | FALSE |
| O=C1CCC(N2Cc3ccc(NCC(=O)N4CCCCC4)cc3C2=O)C(=O)N1 (stereo not drawn) [C12581, 3-[1-oxo-6-[[2-oxo-2-(1-piperidyl)ethyl]amino]isoindolin-2-yl]piperidine-2,6-dione] | FALSE |
| CC1CCN(C(=O)CNc2ccc3c(c2)C(=O)N(C2CCC(=O)NC2=O)C3)CC1 (stereo not drawn) [C12582, 3-[6-[[2-(4-methyl-1-piperidyl)-2-oxo-ethyl]amino]-1-oxo-isoindolin-2-yl]piperidine-2,6-dione] | FALSE |
| CC1CCCN(C(=O)CNc2ccc3c(c2)C(=O)N(C2CCC(=O)NC2=O)C3)C1 (stereo not drawn) [C12583, 3-[6-[[2-(3-methyl-1-piperidyl)-2-oxo-ethyl]amino]-1-oxo-isoindolin-2-yl]piperidine-2,6-dione] | FALSE |
| CC1CCCCN1C(=O)CNc1ccc2c(c1)C(=O)N(C1CCC(=O)NC1=O)C2 (stereo not drawn) [C12584, 3-[6-[[2-(2-methyl-1-piperidyl)-2-oxo-ethyl]amino]-1-oxo-isoindolin-2-yl]piperidine-2,6-dione] | FALSE |
| CC1CN(C(=O)CNc2ccc3c(c2)C(=O)N(C2CCC(=O)NC2=O)C3)CCO1 (stereo not drawn) [C12586, 3-[6-[[2-(2-methylmorpholin-4-yl)-2-oxo-ethyl]amino]-1-oxo-isoindolin-2-yl]piperidine-2,6-dione] | FALSE |
| O=C1CCC(N2Cc3ccc(NCC(=O)N4CC5CC4CO5)cc3C2=O)C(=O)N1 (stereo not drawn) [C12589, 3-[6-[[2-(2-oxa-5-azabicyclo[2.1.1]heptan-5-yl)-2-oxo-ethyl]amino]-1-oxo-isoindolin-2-yl]piperidine] | FALSE |
| CC1CN(C)CCN1C(=O)CNc1ccc2c(c1)C(=O)N(C1CCC(=O)NC1=O)C2 (stereo not drawn) [C12595, 3-[6-[[2-(2,4-dimethylpiperazin-1-yl)-2-oxo-ethyl]amino]-1-oxo-isoindolin-2-yl]piperidine-2,6-dione] | FALSE |
| CN1CCN(C(=O)CNc2ccc3c(c2)C(=O)N(C2CCC(=O)NC2=O)C3)CC1=O (stereo not drawn) [C12597, 3-[6-[[2-(4-methyl-3-oxo-piperazin-1-yl)-2-oxo-ethyl]amino]-1-oxo-isoindolin-2-yl]piperidine-2,6-dione] | FALSE |
| CC1CN(C(=O)CNc2ccc3c(c2)C(=O)N(C2CCC(=O)NC2=O)C3)CC(=O)N1 (stereo not drawn) [C12598, 3-[6-[[2-(3-methyl-5-oxo-piperazin-1-yl)-2-oxo-ethyl]amino]-1-oxo-isoindolin-2-yl]piperidine-2,6-dione] | FALSE |
| CC1CC(NC(=O)CNc2ccc3c(c2)C(=O)N(C2CCC(=O)NC2=O)C3)CCO1 (stereo not drawn) [C12695, 2-[[2-(2,6-dioxo-3-piperidyl)-3-oxo-isoindolin-5-yl]amino]-N-(2-methyltetrahydropyran-4-yl)acetamide] | FALSE |
| CC1CCCN(C(=O)CNc2ccc3c(c2)C(=O)N(C2CCC(=O)NC2=O)C3)CC1 (stereo not drawn) [C12697, 3-[6-[[2-(4-methylazepan-1-yl)-2-oxo-ethyl]amino]-1-oxo-isoindolin-2-yl]piperidine-2,6-dione] | FALSE |
| O=C1CCC(N2C(=O)CCC2=O)C(=O)N1 (stereo not drawn) [C14950, 3-(2,5-dioxopyrrolidin-1-yl)piperidine-2,6-dione] | FALSE |

| Compound | Recruitment Assessment |
| --- | --- |
| O=C1Cc2ccccc2C(=O)N1 [C15352, 4H-isoquinoline-1,3-dione] | FALSE |
| O=C1c2ccccc2CC1n1ccc(=O)[nH]c1=O (stereo not drawn) [C16899, 1-(1-oxoindan-2-yl)pyrimidine-2,4-dione] | FALSE |
| CNC(=O)Nc1cccc2c1CN(C1CCC(=O)NC1=O)C2=O (stereo not drawn) [C22594, 1-[2-(2,6-dioxo-3-piperidyl)-1-oxo-isoindolin-4-yl]-3-methyl-urea] | TRUE |
| O=C1CCC(CN2C(=O)c3ccccc3C2=O)C(=O)N1 (stereo not drawn) [C23258, 2-[(2,6-dioxo-3-piperidyl)methyl]isoindoline-1,3-dione] | FALSE |
| Cc1cccc2c1C(=O)N(C1CCC(=O)NC1=O)C2 (stereo not drawn) [C28661, 3-(7-methyl-1-oxo-isoindolin-2-yl)piperidine-2,6-dione] | FALSE |
| O=C1CCC(N2Cc3cc(O)ccc3C2=O)C(=O)N1 (stereo not drawn) [C28891, 3-(5-hydroxy-1-oxo-isoindolin-2-yl)piperidine-2,6-dione] | TRUE |
| O=C1CCC(N2Cc3ccc(O)cc3C2=O)C(=O)N1 (stereo not drawn) [C28928, 3-(6-hydroxy-1-oxo-isoindolin-2-yl)piperidine-2,6-dione] | TRUE |
| O=C1CCC(N2Cc3cccc(O)c3C2=O)C(=O)N1 (stereo not drawn) [C28973, 3-(7-hydroxy-1-oxo-isoindolin-2-yl)piperidine-2,6-dione] | TRUE |
| COc1cccc2c1C(=O)N(C1CCC(=O)NC1=O)C2 (stereo not drawn) [C29137, 3-(7-methoxy-1-oxo-isoindolin-2-yl)piperidine-2,6-dione] | FALSE |
| CC(=O)Nc1cccc2c1CN(C1CCC(=O)NC1=O)C2=O (stereo not drawn) [C29330, N-[2-(2,6-dioxo-3-piperidyl)-1-oxo-isoindolin-4-yl]acetamide] | TRUE |
| CC(=O)Nc1ccc2c(c1)C(=O)N(C1CCC(=O)NC1=O)C2 (stereo not drawn) [C29408, N-[2-(2,6-dioxo-3-piperidyl)-3-oxo-isoindolin-5-yl]acetamide] | FALSE |
| CC(=O)Nc1cccc2c1C(=O)N(C1CCC(=O)NC1=O)C2 (stereo not drawn) [C29457, N-[2-(2,6-dioxo-3-piperidyl)-3-oxo-isoindolin-4-yl]acetamide] | TRUE |
| NC(=O)Nc1cccc2c1CN(C1CCC(=O)NC1=O)C2=O (stereo not drawn) [C29490, [2-(2,6-dioxo-3-piperidyl)-1-oxo-isoindolin-4-yl]urea] | TRUE |
| O=C1c2c(F)c(F)c(F)c(F)c2C(=O)N1c1ccc(F)cc1F [C34491, 2-(2,4-difluorophenyl)-4,5,6,7-tetrafluoro-isoindoline-1,3-dione] | FALSE |
| Nc1cccc2c(=O)n(C3CCC(=O)NC3=O)nnc12 (stereo not drawn) [C35833, 3-(8-amino-4-oxo-1,2,3-benzotriazin-3-yl)piperidine-2,6-dione] | FALSE |
| COc1cnccc1C(=O)Nc1ccc2c(c1)=NC(=O)N=2 [C36124, 3-methoxy-N-(2-oxobenzimidazol-5-yl)pyridine-4-carboxamide] | FALSE |
| O=C1CCc2cc(C(=O)N3CCCc4ccccc43)cnc2N1 [C36126, 6-(3,4-dihydro-2H-quinoline-1-carbonyl)-3,4-dihydro-1H-1,8-naphthyridin-2-one] | FALSE |
| O=C1CCc2cc(C(=O)N3CCc4cccnc43)cnc2N1 [C36128, 6-(2,3-dihydropyrrolo[2,3-b]pyridine-1-carbonyl)-3,4-dihydro-1H-1,8-naphthyridin-2-one] | FALSE |
| Cc1c(N)cccc1C(=O)NC1CCC(=O)NC1=O (stereo not drawn) [C38930, 3-amino-N-(2,6-dioxo-3-piperidyl)-2-methyl-benzamide] | FALSE |
| NC(=O)c1ccc2c(c1)C(=O)N(C1CCC(=O)NC1=O)C2 (stereo not drawn) [C39772, 2-(2,6-dioxo-3-piperidyl)-3-oxo-isoindoline-5-carboxamide] | FALSE |
| O=C1CCC(Nc2cnc3ccccc3n2)C(=O)N1 (stereo not drawn) [C44292, 3-(quinoxalin-2-ylamino)piperidine-2,6-dione] | FALSE |
